Source: patent publication US20070072209A1, “Methods of treatment and diagnosis of Kaposi's sarcoma (KS) and KS related diseases” (priority 2005, published 2007)

Tests used:
[1] = test system: KSHV-infected DMVEC; test: PMO antisense inhibition of KSHV-induced spindle cell and foci formation (Example 3); type: cell-based, human; conditions: for Extent of PMO-induced Inhibition of Spindle Cell Formation: KSHV-infected DMVEC loaded with gene-specific PMO antisense + EPEI; for Phenotype Inhibition (inhibition of spindle cell formation) / KSHV-induced spindle cell / foci formation (in words): KSHV-infected DMVEC; for Phenotype Inhibition (inhibition of spindle cell formation): gene-specific PMO antisense; for KSHV-induced spindle cell / foci formation (in words): PMO antisense, c-Kit: 1.25 nmol PMO + 2.5 μl EPEI per 35 mm dish
Description: Antisense Gene Silencing using PMOs. […] Silencing of such genes precluded progression into the transformed phenotype when silencing occurred prior to transformation, or induced reversion to the normal state when silencing occurred after induction of the transformed state (see TABLE 2 below).
Introduction of antisense PMO into KSHV-infected DMVEC. Antisense PMO molecules, for delivery purposes, are typically converted to a paired duplex together with a partially complementary cDNA oligonucleotide in the weakly basic delivery reagent ethoxylated polyethylenimine (EPEI) (Summerton, supra). The anionic complex binds to the cell surface, is taken up by endocytosis and eventually released into the cytosol. A protocol for optimum uptake of antisense PMO in immortalized DMVEC was developed using a modification of the EPEI method. Briefly, uninfected, immortalized DMVECs were incubated for 3 hours at 37° C. with 0.6 nmol/well FITC-PMO complexed with EPEI according to the manufacturer's instructions (GeneTools, LLC, One Summerton Way, Philomath, Oreg. 97370) (e.g., 1.25 nMol oligomer with 2.5 μl EPEI reagent per 35 mm dish, allowing for sufficient antisense uptake without non-specific EPEI-induced toxicity). The PMOs were labeled with FITC to allow for monitoring of loading efficiency by fluorescence microscopy.
Specifically, DMVEC were infected with KSHV, plated in 35 mm dishes and allowed to grow to about 90% confluence. For treatment, KSHV-infected cells were treated with the anti-c-Kit PMO-antisense oligomer-EPEI delivery reagent complex and incubated for 3 hours at 37° C. in serum-free medium to allow for oligomer uptake. A titration experiment testing a range of different oligomer/EPEI volumes was used to determine that loading 1.25 nmol oligomer with 2.5 μl EPEI reagent per 35 mm dish allowed efficient antisense uptake without non-specific EPEI-induced toxicity. Control (mock-treated) DMVEC cultures were loaded with EPEI reagent and sterile water or sterile water alone. Upon removal of the oligomer-EPEI solution, cell monolayers were rinsed in serum-free medium fed with complete medium and examined daily for one week by phase microscopy for evidence of phenotypic change.

[2] = test system: KSHV-infected DMVEC; test: Morpholino treatment and focus inhibition assay (Example 5); type: cell-based, human; conditions: for Foci/spindle morpholigical inhibition: PMO-treated KSHV-infected DMVEC vs control PMO, repeated three times
Experimental: Morpholino Treatment and Focus Inhibition Assay. Phosphorodiamidate morpholino antisense oligonucleotides (PMO-AS) were designed and synthesized by Gene Tools LLC (Philomath, Oreg.) as a Special Delivery formulation, which pairs the morpholino with a partially complementary DNA oligo. A weakly basic delivery agent, Ethoxylated Polyethlyenimine (EPEI) is then used to deliver the anionic morpholino/DNA duplex into the cytosol. PMO-AS were received as sterile, lyophilized solids ([…]) that were solubilized in sterile water to obtain 0.5 mM stock solutions. To load a 35 mm dish of DMVEC at 90% confluence, 5 microl of stock solution was mixed with 5 microl of EPEI delivery solution in 590 μl H20 for 20 minutes at room temperature, and then mixed with 1.5 ml of serum-free RPMI medium. Endothelial growth media was removed from DMVEC, and replaced with the PMO-AS:EPEI:RPMI delivery solution for 3 hours in a 37° C. incubator. After incubation, cells were rinsed, complete endothelial growth medium was added and cells were cultured for up to 10 days without sub-culture, with media replacement every 48-72 hours. This protocol allows for the characteristic post-confluent growth and development of multi-layered spindle-cell aggregates (foci) in KSHV-infected cultures. Cells were monitored daily under the phase microscope to evaluate PMO-AS-inhibition of the development of these foci. At the conclusion of an assay, cells were fixed in 2% paraformaldehyde and stained with a MAB against CD31 (Dako; 1:100) followed by a goat-anti-mouse FITC second conjugate. Junctional staining of cells with CD31 accentuated the disorganized multi-layered nature of the spindle cell aggregates as composed to the flat, organized profile of contact-inhibited cells.
For these assays, KSHV-infected DMVEC monolayers were cultured to 90% confluence and then loaded with each PMO-AS, or maintained as unloaded controls. Cultures were observed daily until control cultures had developed prominent multi-layered aggregates of spindle cells. Typically this took 5-10 days with some variation between replicate experiments. Each experiment was performed at least three times and was performed with mock-infected as well as KSHV-infected DMVEC. As expected, mock-infected DMVEC maintained a quiescent monolayer at confluence, and PMO-AS treatment of uninfected cells occurred without any adverse effect. This observation allowed verification that none of the gene knockdown treatments induced non-specific toxicity in DMVEC. The majority of tested PMO-AS had no effect on the ability of KSHV-infected DMVEC to grow post-confluence and form disorganized, multi-layered foci (TABLE 2).

[3] = test system: KSHV-infected DMVEC; test: XTT proliferation assay of PMO-loaded KSHV-infected DMVEC (Example 3); type: cell-based, human; conditions: PMO antisense silencing
Experimental: Proliferation assays, and loading of cells with PMOs. Proliferation of KSHV-infected DMVEC was quantified using an XTT (2,3-bis-(2-methoxy-4-nitro-5-sulfophenyl)-2H-tetrazolium-5-carboxanilide, disodium salt)-based assay. KSHV-infected cells were added to Primaria 96-well trays (Becton Dickinson) at 1×10^4 or 5×10^4 cells/well. XTT (Roche, Molecular Biochemicals, Indianapolis, Ind.) was added 48 hours later according to the manufacturer's instructions. Absorbance was read after 4 to 6 hours on a microplate reader.
Briefly, cells were plated in 96-well trays at a density approaching confluence (5×10^4 cells per well) in 100 μl of complete medium. PMOs were loaded the following day in a total of 100 μl (0.5 μl PMO, 0.5 μl EPEI, 49 μl H2O and 50 μl serum free medium) with reagent mixing as described by the manufacturer (GeneTools). Controls included a FITC PMO control oligonucleotide, EPEI only or H2O only. Each variable was performed in quadruplicate. Fresh complete medium was replaced 4 hours after loading. Cells were cultured for 4 days to allow for multi-layered cell growth post-confluence in the absence of any growth inhibition. XTT was added on day 4 of culture and the absorbance read 4 hrs later on a microplate reader. Cell proliferation (growth) values are given as percentage inhibition values, relative to cells without PMO, which are adjusted to 100%.

[4] = test system: KSHV-infected DMVEC; conditions: cited from earlier work
[5] = test system: Uninfected DMVEC; conditions: cited from earlier work
[6] = test system: KSHV-infected DMVEC; conditions: cited from earlier work; remark: listed apart in the source

| Compound | Extent of PMO-induced Inhibition of Spindle Cell Formation [1] | Phenotype Inhibition (inhibition of spindle cell formation) [1] | KSHV-induced spindle cell / foci formation (in words) [1] | Foci/spindle morpholigical inhibition [2] | inhibition of KSHV-induced cellular proliferation (in words) [3] | effect on phenotype (foci, spindle shape) in focus-inhibition assay (in words) ([2]; PMO-AS, KSHV-infected DMVEC, 5-10 days) | focus formation ([4]; KSHV-infected DMVEC) | phenotype after removal of drug ([4]; even after exposure of cells to a 10 μM dose) | effect on cell morphology or viability [5] | nonspecific cytotoxicity (cell viability controls) [6] | proliferative response to exogenous SCF [6] |
| --- | --- | --- | --- | --- | --- | --- | --- | --- | --- | --- | --- |
| ANGPTL2: PMO antisense to ANGPTL2, AGCATGTCACGCACAGTGGCCTCAT (SEQ ID NO:33) (all phosphorodiamidate morpholino (PMO); delivered paired with partially complementary DNA oligo (Special Delivery)) | intermediate | Intermediate | intermediate inhibitory effects |  |  |  |  |  |  |  |  |
| IGFBP2: PMO antisense to IGFBP2, GGCAGCCCACTCTCTCGGCAGCATG (SEQ ID NO:16) (all phosphorodiamidate morpholino (PMO); delivered paired with partially complementary DNA oligo (Special Delivery)) | full | Full | fully reversed spindle cell formation | Full | substantial inhibition |  |  |  |  |  |  |
| LOX: PMO antisense to LOX, GGAGCACGGTCCAGGCGAAGCGCAT (SEQ ID NO:31) (all phosphorodiamidate morpholino (PMO); delivered paired with partially complementary DNA oligo (Special Delivery, EPEI)) | full | Full | fully reversed spindle cell formation |  |  |  |  |  |  |  |  |
| Osteopontin |  | None |  | None | relatively little or no significant inhibition |  |  |  |  |  |  |
| LMO2: PMO antisense to LMO2, GCCGAGGACATTGGGGAGGGAGGCG (SEQ ID NO:23) (all phosphorodiamidate morpholino (PMO); delivered paired with partially complementary DNA oligo (Special Delivery, EPEI)) | none |  | little or no affect | None |  |  |  |  |  |  |  |
| INSR: PMO antisense to INSR, GGGTCTCCTCGGATCAGGCGCG (SEQ ID NO:20) (all phosphorodiamidate morpholino (PMO); delivered paired with partially complementary DNA oligo (Special Delivery)) | intermediate | Intermediate | intermediate inhibitory effects | Intermediate | substantial inhibition | marginal but reproducible effect on phenotype |  |  |  |  |  |
| IFACTOR: PMO antisense to IFACTOR, AGCTTCATGTTGGAGGTGTTCG (SEQ ID NO:22) (all phosphorodiamidate morpholino (PMO); delivered paired with partially complementary DNA oligo (Special Delivery)) | none | None | little or no affect |  | relatively little or no significant inhibition |  |  |  |  |  |  |
| MFAP3: PMO antisense to MFAP3, TGAATAAGCAACAATGTAGCTTCAT (SEQ ID NO:24) (all phosphorodiamidate morpholino (PMO); delivered paired with partially complementary DNA oligo (Special Delivery, EPEI)) | none | no and None | little or no affect | None | relatively little or no significant inhibition |  |  |  |  |  |  |
| NOV: PMO antisense to NOV, AGCTCGTGCTCTGCACACTCTGCAT (SEQ ID NO:32) (all phosphorodiamidate morpholino (PMO); delivered paired with partially complementary DNA oligo (Special Delivery, EPEI)) | full | Full | fully reversed spindle cell formation |  |  |  |  |  |  |  |  |
| Cc1ccc(NC(=O)c2ccc(CN3CCN(C)CC3)cc2)cc1Nc1nccc(-c2cccnc2)n1 [STI 571] |  |  |  |  |  |  | focus formation is inhibited | regeneration of the transformed phenotype | has effect on cell morphology or viability | not due to nonspecific cytotoxicity | inhibited |
| K1AA0367: PMO antisense to KIAA0367, GTCAGTTTACTCATGTCATCTATTG (SEQ ID NO:18) (all phosphorodiamidate morpholino (PMO); delivered paired with partially complementary DNA oligo (Special Delivery)) | intermediate | Intermediate | intermediate inhibitory effects |  | substantial inhibition |  |  |  |  |  |  |
